In patent publication US20230293535A1, “ERBB/BTK INHIBITORS” (Dizal (Jiangsu) Pharmaceutical Co., Ltd., priority 2018, published 2023):
Counter-ions that a name gives are not always drawn. Like-named read-outs stand apart in the source and are kept apart here.

Assays:
Assay type in all cases: cell-based
WT EGFR cell line A-431 = test: Cell proliferation, WT EGFR A431 (CellTiter-Glo, 72 h); settings: Homo sapiens, A-431, 72 h;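 also: proliferation from a luminescent ATP viability signal, expressed as 100 × (treated minus time-zero plate) over (DMSO control minus time-zero plate), cells grown with 10% FBS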
Method: (§1) WT or mutant cells were seeded in 384 well plates at appropriate concentrations with corresponding growth media supplemented with 10% FBS, for each experiment, identical plates were prepared in duplicates, and the plates were incubated overnight. On the next day, one of each duplicated plates was dosed with tested compounds at a series of concentrations, and another one of the duplicated plate was analysied for G0 value. The dosed plates were incubate for another 72 h at 37° C. with 5% CO2 and the number of viable cells in each well of the G0 plates or the dosed plates were measured by CellTiter-Glo® Luminescent Cell Viability Assay (Promega). This assay is a luminescent method for determining the number viable cells through measurement of cellular ATP concentration by detection of luciferase activity. Detection reagents (15 µl) was dispensed into per well, and the plates were incubate for 30 min at room temperature. Then, the luminescence in each well was measured using the Envision plate reader (PerkinElmer). The percentage of proliferation was calculated based on the formula: %Proliferation= 100 × (G3 value of sample well-Go value)/(G3 value of DMSO control-Go value).

Ba/F3 EGFR ASV ins cells = test: Cell proliferation, Ba/F3 EGFR ASV ins (CellTiter-Glo, 72 h); settings: Ba/F3 EGFR, 72 h;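 also: IL3-independent Ba/F3 cells transduced with EGFR V769_D770insASV, cellular ATP luminescence after compound exposure, growth relative to DMSO control with the day-0 baseline reading subtracted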
Ba/F3 EGFR NPH ins cells = test: Cell proliferation, Ba/F3 EGFR NPH ins (CellTiter-Glo, 72 h); settings: Ba/F3 EGFR, 72 h;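 also: IL3-independent cells carrying constitutively phosphorylated EGFR, compound dilution series, viable cells quantified by ATP luminescence, growth relative to DMSO wells after subtracting pre-dosing (day 0) baseline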
Method: Similar to recombinant human EGFR exon 20 H769_V770insASV Ba/F3 cell line, the recombinant human EGFR exon 20 H773_V774insNPH Ba/F3 cell line also expresses constitutively phosphorylated EGFR protein and proliferates in the absence of IL3, which could be used for in vitro PD and anti-proliferation assays.
as §1

EGFR L858R&T790M = molecular target: T1, EGFR L858R&T790M (Homo sapiens, UniProt P00533, L858R/T790M); test: EGFR L858R and T790M cellular phosphorylation inhibition in NCI-H1975 (MSD); settings: NCI-H1975 cells, 4 h compound, p-EGFR(Y1068)/total EGFR; read-out: EGFR L858R and T790M mutation IC50;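 also: phosphorylated and total EGFR detected by electrochemiluminescence, cells exposed to compound in medium containing 1% FBS at 37 °C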
T1 construct: host or cells: NCI-H1975

[1] = tested on: Her2 exon 20 insertion YVMA transduced NIH-3T3 cell line; test: Cell proliferation, Her2 YVMAins NIH-3T3 (CellTiter-Glo, 72 h); settings: Mus musculus, NIH3T3, 72 h, Her2 YVMAins cells, 72 h proliferation; read-out: Her2 Exon 20 YVMA insertion GI50;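 also: viable cells quantified by ATP luminescence, growth over a day-zero baseline plate expressed as percent of DMSO control growth, compound dilution series in 10% FBS medium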
Method: as §1

WT EGFR = molecular target: T2, WT EGFR (Homo sapiens, UniProt P00533); test: WT EGFR cellular phosphorylation inhibition in A-431 (hEGF stimulated, MSD); settings: A431 cells, 4 h compound, then 100 ng/ml hEGF 10 min;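 also: electrochemiluminescence read-out of EGFR Tyr1068 phosphorylation expressed as ratio to total EGFR, cells kept in medium with 1% FBS, compounds tested as a concentration series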
T2 construct: host or cells: A-431

[2] = molecular target: T3, human EGFR exon 20 V769_D770insASV (Homo sapiens, UniProt P00533, INS769ASV); test: EGFR Exon20 ASV insertion cellular phosphorylation inhibition (MSD pEGFR Y1068/total EGFR); settings: Ba/F3 EGFR ASV ins cells, 4 h compound, p-EGFR(Y1068)/total EGFR;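 also: electrochemiluminescent readout on an MSD SECTOR Imager, IL3-independent transduced cells in medium with 1% FBS, compound concentration series at 37 °C and 5% CO2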
T3 construct: expressed in transfected cells; host or cells: Ba/F3 (DSMZ ACC-300), lentiviral transduction, puromycin selection, IL3 depletion
Method: To generate the EGFR exon 20 V769_D770insASV transduced Ba/F3 cell line, the parental Ba/F3 cells were infected with the recombinant EGFR V769_D770insASV lentivirus and then followed by 1 µg/ml of puromycin selection and IL3 depletion. The resulting cell line expresses constitutively phosphorylated EGFR protein and proliferates in the absence of IL3, which could be used for in vitro PD and anti-proliferation assays.
(§2) One day before the test, WT or mutant cells were seeded in 96 well plates at appropriate concentrations with corresponding growth media supplemented with 1% FBS, and incubated overnight. The next day, tested compounds at a series of concentrations were added into each individual well of the plates, and the plates were incubated for 4 h at 37° C. with 5% CO2.
(§3) The EGFR (Y1068) phosphorylation level (activity) of cells in each well were then measured with MSD kit named “MULTI-SPOT®96 4-Spot HB Prototype EGFR Triplex [sequence]: pEGFR(Tyr1068),pEGFR(Tyr1173), Total EGFR” according to the manufacturer’s instruction (MESO SCALE DISCOVERY, Cat# N45ZB-1). The assay is an electrochemiluminescent method for determining both phosphorylated and total EGFR of cells with an MSD SECTOR® Imager and the ratio of p-EGFR/total EGFR can be generated by the machine. The Her2 (Y1248) phosphorylation level (activity) of cells in each well were measured with MSD Kit named “Phospho-ErbB2 (Tyr1248) Assay Whole Cell Lysate Kit” according to the manufacturer’s instruction (MESO SCALE DISCOVERY, Cat# K151CLD-3). The assay is an electrochemiluminescent method (MESO SCALE DISCOVERY) for determining both phosphorylated and total Her2 of cells with an MSD SECTOR® Imager and then the ratio of p-Her2/total Her2 can be generated by the machine.

[3] = molecular target: T4, human EGFR exon 20 H773_V774insNPH (Homo sapiens, UniProt P00533, INS773NPH); test: EGFR Exon20 NPH insertion cellular phosphorylation inhibition (MSD pEGFR Y1068/total EGFR); settings: Ba/F3 EGFR NPH ins cells, 4 h compound, p-EGFR(Y1068)/total EGFR;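 also: IL3-independent Ba/F3 cells with constitutively phosphorylated EGFR, compound exposure at 37 °C under 5% CO2, electrochemiluminescent MSD measurement of the p-EGFR to total EGFR ratio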
T4 construct: host or cells: Ba/F3

[4] = tested on: NCI-H1975 EGFR L858R/T790M cells; test: Cell proliferation, NCI-H1975 EGFR L858R/T790M (CellTiter-Glo, 72 h); settings: Homo sapiens, NCI-H1975, 72 h;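 also: viable cells quantified by luciferase-based ATP luminescence, proliferation expressed relative to DMSO-treated wells (100%) after subtracting a parallel plate read at the time of dosing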
[5] = molecular target: T5, human Her2 exon 20 insertion mutation YVMA (Homo sapiens, UniProt P04626, INS775YVMA); test: Her2 Exon 20 YVMA insertion cellular phosphorylation inhibition (MSD p-Her2 Y1248/total Her2); settings: Her2 YVMAins cells, 4 h compound;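 also: lentivirally transduced NIH-3T3 cells in 1% FBS medium, electrochemiluminescent MSD read-out, graded compound concentrations at 37 °C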
T5 construct: expressed in transfected cells; host or cells: NIH-3T3, lentiviral transduction, puromycin selection
Method: The resulting cell line expressed phosphorylated Her2 protein and its proliferation depended on the mutation gene, which could be used for in vitro PD and anti-proliferation assays.
as §2, §3

[6] = A431, 72 h proliferation, read-out: EGFR WT A431 GI50
[7] = Ba/F3 EGFR ASV ins, 72 h proliferation, read-out: EGFR Exon20 ASV insertion GI50
[8] = Ba/F3 EGFR NPH ins, 72 h proliferation, read-out: EGFR Exon20 NPH insertion GI50
[9] = NCI-H1975, 72 h proliferation, read-out: EGFR L858R and T790M mutation GI50

T5 sequence (P04626 with tags, fused parts or gaps INS775YVMA): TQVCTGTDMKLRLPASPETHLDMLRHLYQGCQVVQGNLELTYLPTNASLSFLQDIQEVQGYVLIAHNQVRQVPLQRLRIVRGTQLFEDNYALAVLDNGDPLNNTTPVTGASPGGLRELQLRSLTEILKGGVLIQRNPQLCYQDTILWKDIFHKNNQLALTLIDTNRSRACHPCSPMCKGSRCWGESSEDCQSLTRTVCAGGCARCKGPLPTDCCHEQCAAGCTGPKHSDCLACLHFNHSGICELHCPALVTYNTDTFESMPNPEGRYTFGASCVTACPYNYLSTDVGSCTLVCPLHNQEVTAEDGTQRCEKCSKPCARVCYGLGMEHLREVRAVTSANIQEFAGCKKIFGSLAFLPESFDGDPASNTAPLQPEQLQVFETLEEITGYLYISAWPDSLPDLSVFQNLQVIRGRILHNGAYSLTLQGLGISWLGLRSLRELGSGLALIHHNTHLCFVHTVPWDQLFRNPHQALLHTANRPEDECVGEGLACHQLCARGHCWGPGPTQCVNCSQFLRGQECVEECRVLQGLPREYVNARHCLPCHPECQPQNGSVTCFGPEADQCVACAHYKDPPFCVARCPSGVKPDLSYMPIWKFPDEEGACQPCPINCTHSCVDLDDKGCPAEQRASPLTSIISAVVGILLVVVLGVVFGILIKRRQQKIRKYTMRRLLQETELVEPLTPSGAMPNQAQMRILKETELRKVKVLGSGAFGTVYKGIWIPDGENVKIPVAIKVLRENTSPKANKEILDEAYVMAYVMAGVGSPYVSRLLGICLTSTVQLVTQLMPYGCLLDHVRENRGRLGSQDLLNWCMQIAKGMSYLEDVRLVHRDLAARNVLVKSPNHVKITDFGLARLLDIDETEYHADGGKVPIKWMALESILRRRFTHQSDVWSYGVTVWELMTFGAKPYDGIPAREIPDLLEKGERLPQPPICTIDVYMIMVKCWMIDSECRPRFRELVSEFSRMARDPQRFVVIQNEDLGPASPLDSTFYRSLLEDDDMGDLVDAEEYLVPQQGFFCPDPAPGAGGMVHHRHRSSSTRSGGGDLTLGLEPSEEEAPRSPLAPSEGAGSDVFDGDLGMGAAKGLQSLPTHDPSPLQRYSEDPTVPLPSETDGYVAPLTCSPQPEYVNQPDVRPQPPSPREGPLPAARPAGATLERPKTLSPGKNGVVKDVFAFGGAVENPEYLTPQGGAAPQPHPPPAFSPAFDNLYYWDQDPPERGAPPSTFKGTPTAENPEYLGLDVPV
T4 sequence (P00533 with tags, fused parts or gaps INS773NPH): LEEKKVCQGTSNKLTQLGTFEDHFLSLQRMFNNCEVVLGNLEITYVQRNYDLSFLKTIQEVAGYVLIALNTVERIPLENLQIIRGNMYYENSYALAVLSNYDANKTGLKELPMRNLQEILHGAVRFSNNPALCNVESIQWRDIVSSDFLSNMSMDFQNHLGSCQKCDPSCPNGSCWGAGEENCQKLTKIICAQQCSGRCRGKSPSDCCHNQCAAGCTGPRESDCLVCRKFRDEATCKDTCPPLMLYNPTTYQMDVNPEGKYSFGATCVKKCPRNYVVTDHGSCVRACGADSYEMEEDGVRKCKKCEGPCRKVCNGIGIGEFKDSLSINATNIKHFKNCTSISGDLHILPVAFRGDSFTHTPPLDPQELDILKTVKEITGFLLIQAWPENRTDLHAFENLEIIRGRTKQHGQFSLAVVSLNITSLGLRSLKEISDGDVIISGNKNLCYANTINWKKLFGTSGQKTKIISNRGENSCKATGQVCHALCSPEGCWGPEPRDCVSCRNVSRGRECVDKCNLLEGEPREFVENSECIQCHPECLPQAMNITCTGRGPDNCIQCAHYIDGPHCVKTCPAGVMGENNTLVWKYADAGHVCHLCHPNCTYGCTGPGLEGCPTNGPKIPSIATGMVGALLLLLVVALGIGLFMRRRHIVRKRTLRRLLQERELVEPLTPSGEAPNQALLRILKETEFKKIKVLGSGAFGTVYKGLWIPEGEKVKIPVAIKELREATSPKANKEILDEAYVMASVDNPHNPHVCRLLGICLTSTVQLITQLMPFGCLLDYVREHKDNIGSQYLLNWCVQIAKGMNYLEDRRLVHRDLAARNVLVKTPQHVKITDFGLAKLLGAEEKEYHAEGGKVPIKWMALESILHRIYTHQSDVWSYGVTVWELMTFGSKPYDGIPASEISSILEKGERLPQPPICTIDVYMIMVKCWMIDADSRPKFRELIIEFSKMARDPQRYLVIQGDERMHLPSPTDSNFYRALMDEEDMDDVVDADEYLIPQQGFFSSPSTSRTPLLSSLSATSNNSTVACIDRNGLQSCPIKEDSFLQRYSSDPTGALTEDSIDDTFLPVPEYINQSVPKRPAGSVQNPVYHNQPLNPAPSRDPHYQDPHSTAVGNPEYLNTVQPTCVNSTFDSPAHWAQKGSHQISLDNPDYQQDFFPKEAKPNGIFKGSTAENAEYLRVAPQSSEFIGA
T2 sequence (P00533 25-1210): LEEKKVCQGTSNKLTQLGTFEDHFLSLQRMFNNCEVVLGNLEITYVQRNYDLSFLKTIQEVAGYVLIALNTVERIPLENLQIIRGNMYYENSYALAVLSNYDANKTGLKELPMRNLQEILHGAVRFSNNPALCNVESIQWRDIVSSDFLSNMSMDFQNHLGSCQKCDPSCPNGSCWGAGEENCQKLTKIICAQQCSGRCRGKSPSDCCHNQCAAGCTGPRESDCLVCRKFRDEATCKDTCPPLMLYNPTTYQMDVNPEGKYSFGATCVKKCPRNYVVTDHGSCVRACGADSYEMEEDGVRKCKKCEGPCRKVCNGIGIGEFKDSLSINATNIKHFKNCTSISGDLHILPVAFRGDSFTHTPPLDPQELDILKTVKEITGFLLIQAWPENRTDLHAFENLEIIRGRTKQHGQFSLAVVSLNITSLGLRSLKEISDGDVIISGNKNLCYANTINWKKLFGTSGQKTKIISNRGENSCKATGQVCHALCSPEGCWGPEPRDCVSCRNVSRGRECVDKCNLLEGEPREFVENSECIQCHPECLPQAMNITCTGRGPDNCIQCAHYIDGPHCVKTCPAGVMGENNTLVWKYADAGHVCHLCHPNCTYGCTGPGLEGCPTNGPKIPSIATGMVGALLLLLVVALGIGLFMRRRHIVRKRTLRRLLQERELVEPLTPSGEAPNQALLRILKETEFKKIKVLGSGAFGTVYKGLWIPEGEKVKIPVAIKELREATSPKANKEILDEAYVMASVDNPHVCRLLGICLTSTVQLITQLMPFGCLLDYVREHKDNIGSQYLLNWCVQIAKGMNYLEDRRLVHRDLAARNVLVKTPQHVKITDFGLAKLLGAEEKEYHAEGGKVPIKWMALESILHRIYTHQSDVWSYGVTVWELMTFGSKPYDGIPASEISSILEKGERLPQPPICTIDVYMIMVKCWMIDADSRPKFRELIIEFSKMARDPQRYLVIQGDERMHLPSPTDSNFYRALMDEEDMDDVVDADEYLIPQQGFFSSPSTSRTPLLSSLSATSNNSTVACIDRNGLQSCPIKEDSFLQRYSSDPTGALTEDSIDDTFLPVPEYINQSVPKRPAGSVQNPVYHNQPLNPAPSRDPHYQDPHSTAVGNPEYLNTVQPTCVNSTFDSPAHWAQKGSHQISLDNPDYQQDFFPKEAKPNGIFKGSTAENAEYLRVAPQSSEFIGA
T1 sequence (P00533 25-1210 T790M/L858R): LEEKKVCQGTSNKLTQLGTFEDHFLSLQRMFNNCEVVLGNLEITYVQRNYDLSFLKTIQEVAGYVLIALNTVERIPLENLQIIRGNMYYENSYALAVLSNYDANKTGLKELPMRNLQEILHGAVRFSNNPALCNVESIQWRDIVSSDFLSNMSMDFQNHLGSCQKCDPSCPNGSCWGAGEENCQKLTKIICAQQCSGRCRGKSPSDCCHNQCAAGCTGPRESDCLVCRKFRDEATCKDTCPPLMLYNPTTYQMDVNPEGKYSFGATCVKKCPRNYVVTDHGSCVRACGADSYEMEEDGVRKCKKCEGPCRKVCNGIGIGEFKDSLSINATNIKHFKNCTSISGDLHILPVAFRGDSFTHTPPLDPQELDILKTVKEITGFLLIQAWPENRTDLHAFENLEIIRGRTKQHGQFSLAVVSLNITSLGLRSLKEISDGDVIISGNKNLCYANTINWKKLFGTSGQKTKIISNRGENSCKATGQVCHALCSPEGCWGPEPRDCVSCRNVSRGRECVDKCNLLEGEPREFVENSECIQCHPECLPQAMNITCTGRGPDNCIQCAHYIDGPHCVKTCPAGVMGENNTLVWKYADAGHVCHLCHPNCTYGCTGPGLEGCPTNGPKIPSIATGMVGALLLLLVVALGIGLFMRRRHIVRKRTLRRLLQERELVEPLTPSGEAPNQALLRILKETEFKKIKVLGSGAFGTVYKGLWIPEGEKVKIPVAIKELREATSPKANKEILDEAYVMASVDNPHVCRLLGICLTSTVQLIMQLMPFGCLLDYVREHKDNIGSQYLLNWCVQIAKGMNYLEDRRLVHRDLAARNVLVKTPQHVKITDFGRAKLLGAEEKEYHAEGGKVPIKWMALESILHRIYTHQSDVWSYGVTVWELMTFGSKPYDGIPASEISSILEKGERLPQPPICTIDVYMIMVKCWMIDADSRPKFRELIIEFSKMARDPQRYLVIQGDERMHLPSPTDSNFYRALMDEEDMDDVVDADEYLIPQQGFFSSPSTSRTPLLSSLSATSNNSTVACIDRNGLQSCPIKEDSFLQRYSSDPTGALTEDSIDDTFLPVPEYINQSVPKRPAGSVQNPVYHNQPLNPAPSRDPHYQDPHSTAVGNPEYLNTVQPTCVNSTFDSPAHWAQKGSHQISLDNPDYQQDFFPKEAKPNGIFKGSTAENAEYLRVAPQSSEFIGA

SMILES: C=CC(=O)Nc1cc(Nc2ncnc(Nc3cc(F)c(F)cc3C(C)(C)O)n2)c(OC)cc1N1CC[C@H]2CN(C)C[C@H]21 [Compound 25, N-(5-(4-(4,5-difluoro-2-(2-hydroxypropan-2-yl)phenylamino)-1,3,5-triazin-2-ylamino)-4-methoxy-2-((3aS,6aS)-5-methylhexahydropyrrolo[3,4-b]pyrrol-1(2H)-yl)phenyl) acrylamide]
- GI50 (WT EGFR cell line A-431; [6]): 329 nM
- GI50 (Ba/F3 EGFR ASV ins cells; [7]): 552 nM
- GI50 (Ba/F3 EGFR NPH ins cells; [8]): 618 nM
- IC50 (EGFR L858R&T790M): 7.9 nM
- GI50 [1]: 989 nM
- IC50 (WT EGFR): 838 nM
- IC50 [2]: 388 nM
- IC50 [3]: 376 nM
- GI50 [4, 9]: 165 nM
- IC50 [5]: 534 nM

SMILES: C=CC(=O)Nc1cc(Nc2ncnc(Nc3cc(Cl)c(F)cc3C(C)(C)O)n2)c(OC)cc1N(C)CCN1CCC[C@@H]1C [Compound 42, (S)-N-(5-(4-(5-chloro-4-fluoro-2-(2-hydroxypropan-2-yl)phenylamino)-1,3,5-triazin-2-ylamino)-4-methoxy-2-(methyl(2-(2-methylpyrrolidin-1-yl)ethyl)amino)phenyl) acrylamide]
- GI50 (WT EGFR cell line A-431; [6]): 53.2 nM
- GI50 (Ba/F3 EGFR ASV ins cells; [7]): 144 nM
- GI50 (Ba/F3 EGFR NPH ins cells; [8]): 137 nM
- IC50 (EGFR L858R&T790M): 1.8 nM
- GI50 [1]: 195 nM
- IC50 (WT EGFR): 133 nM
- IC50 [2]: 63.3 nM
- IC50 [3]: 35.8 nM
- GI50 [4, 9]: 8.5 nM
- IC50 [5]: 33.9 nM

SMILES: C=CC(=O)Nc1cc(Nc2ncnc(Nc3cc(F)c(F)cc3C(C)(O)CC)n2)c(OC)cc1N1CC[C@H]2CN(C)C[C@H]21 (stereo partly drawn) [Compound 50, N-(5-(4-(4,5-difluoro-2-(2-hydroxybutan-2-yl)phenylamino)-1,3,5-triazin-2-ylamino)-4-methoxy-2-((3 aS, 6aS)-5-methylhexahydropyrrolo[3,4-b]pyrrol-1 (2H)-yl)phenyl) acrylamide]
- GI50 (WT EGFR cell line A-431; [6]): 277 nM
- GI50 (Ba/F3 EGFR ASV ins cells; [7]): 449 nM
- GI50 (Ba/F3 EGFR NPH ins cells; [8]): 802 nM
- IC50 (EGFR L858R&T790M): 19 nM
- GI50 [1]: 1080 nM
- IC50 (WT EGFR): 1110 nM
- IC50 [2]: 308 nM
- IC50 [3]: 2630 nM
- GI50 [4, 9]: 30 nM
- IC50 [5]: 382 nM

SMILES: C=CC(=O)Nc1cc(Nc2ncnc(Nc3cc(Cl)c(F)cc3C(C)(O)CC)n2)c(OC)cc1N1CCC[C@H]1CN(C)C (stereo partly drawn) [Compound 64, N-(5-(4-(5-chloro-4-fluoro-2-(2-hydroxybutan-2-yl)phenylamino)-1,3,5-triazin-2-ylamino)-2-((S)-2-((dimethylamino)methyl)pyrrolidin-1-yl)-4-methoxyphenyl)acrylamide]
- GI50 (WT EGFR cell line A-431; [6]): 220 nM
- GI50 (Ba/F3 EGFR ASV ins cells; [7]): 395 nM
- GI50 (Ba/F3 EGFR NPH ins cells; [8]): 359 nM
- IC50 (EGFR L858R&T790M): 7.1 nM
- GI50 [1]: 640 nM
- IC50 (WT EGFR): 555 nM
- IC50 [2]: 240 nM
- IC50 [3]: 267 nM
- GI50 [4, 9]: 24.2 nM
- IC50 [5]: 143 nM

SMILES: C=CC(=O)Nc1cc(Nc2ncnc(Nc3cc(Cl)c(F)cc3C(C)(C)O)n2)c(OC)cc1N1CCC[C@H]1CN(C)C [Compound 65, (S)-N-(5-(4-(5-chloro-4-fluoro-2-(2-hydroxypropan-2-yl)phenylamino)-1,3,5-triazin-2-ylamino)-2-(2-((dimethylamino)methyl)pyrrolidin-1-yl)-4-methoxyphenyl)acrylamide]
- GI50 (WT EGFR cell line A-431; [6]): 234 nM
- GI50 (Ba/F3 EGFR ASV ins cells; [7]): 484 nM
- GI50 (Ba/F3 EGFR NPH ins cells; [8]): 382 nM
- IC50 (EGFR L858R&T790M): 7.9 nM
- GI50 [1]: 776 nM
- IC50 (WT EGFR): 479 nM
- IC50 [2]: 358 nM
- IC50 [3]: 315 nM
- GI50 [4, 9]: 29.6 nM
- IC50 [5]: 188 nM

SMILES: C=CC(=O)Nc1cc(Nc2nccc(Nc3cc(Cl)c(F)cc3C(C)(C)O)n2)c(OC)cc1N1C[C@H](N(C)C)C2(CC2)C1 [Compound 83, (R)-N-(5-(4-(5-chloro-4-fluoro-2-(2-hydroxypropan-2-yl)phenylamino)pyrimidin-2-ylamino)-2-(7-(dimethylamino)-5-azaspiro[2.4]heptan-5-yl)-4-methoxyphenyl) acrylamide formic acid salt]
- GI50 (WT EGFR cell line A-431; read-out: EGFR WT A431 GI50 (nM)): 252 nM
- GI50 (Ba/F3 EGFR ASV ins cells; read-out: EGFR Exon20 ASV insertion GI50 (nM)): 340 nM
- GI50 (Ba/F3 EGFR NPH ins cells; read-out: EGFR Exon20 NPH insertion GI50 (nM)): 300 nM
- IC50 (EGFR L858R&T790M): 5 nM
- GI50 [1]: 678 nM
- IC50 (WT EGFR): 1010 nM
- IC50 [2]: 154 nM
- IC50 [3]: 239 nM
- GI50 ([4]; read-out: EGFR L858R and T790M mutation GI50 (nM)): 38.9 nM
- IC50 [5]: 87.6 nM
